From US11261189B2, “Substituted 2,4 diamino-quinoline as new medicament for fibrosis, autophagy and cathepsins B (CTSB), L (CTSL) and D (CTSD) related diseases” (Genoscience Pharma, priority 2018, dated 2022)
Structures can show the parent of a compound that is named as a salt.

Experiments:
[1] = test system: cathepsins B and L (CTSB/L); assay: Overall cathepsins B and L (CTSB/L) peptidase activity in lysates of treated HepG2 cells (Z-FR-AMC substrate); type: cell-based; conditions: for CTSB/L activity versus NT: 6 hours of treatment
Description: (§1) Lysosomal functions was investigated in a hepatocellular carcinoma (HCC) cell line HepG2 after 6 hours and 24 hours of treatment with compound 2-3 (the hydrochloride salt form of compound 2-2) using functional assays of some lysosomal enzymes activity: two cysteine proteinases: cathepsin B (CTSB) and cathepsin L (CTSL), and one aspartic proteinase: cathepsin D (CTSD). Two sets of three concentrations of compound 2-3 (1 μM, 2 μM, and 4 μM for 6 hours, and 0.5 μM, 1 μM and 2 μM for 24 hours) were tested at least in triplicate and four independent experiments were performed. Salinomycin (7.5 μM for 6 hours and 24 hours) was used as a positive control.
(§2) The HepG2 cell line was maintained in DMEM (Dulbecco's Modified Eagle Media) high glucose (Cat #L0103-500, Dutscher) containing 1% penicillin-streptomycin (Cat #P06-07100, Dutscher) and 10% FBS (Fetal Bovine Serum) (Cat #11543407, Life Technologies). Cells were cultured at 37° C. with 5% CO2.
(§3) The day before the experiment, 6-well plates (Cat #353046, Dutscher) with 250,000 cells in 2.7 mL of medium per well were prepared.
(§4) Compound 2-3 was dissolved with filtrated H2O mQ to make a 10 mM stock solution and serial working solutions (10× solutions) were prepared with the diluent (=culture medium with 0.4% H2O mQ) at 5 μM, 10 μM, 20 μM and 40 μM: the “dilution 1” is made from the 10 mM stock solution in the culture medium and the following serial dilutions were made in the diluent to maintain a constant percentage of H2O.
Salinomycin [CAS 53003-10-4] was used as positive control and was dissolved with methanol to make a 10 mM stock solution and a 10× solution at 75 μM was prepared with the culture medium.
300 μL of compound 2-3 10× solutions (solutions at 10 μM, 20 μM and 40 μM for 6 hours of treatment and solutions at 5 μM, 10 μM and 20 μM for 24 hours of treatment) or 300 μL of diluent (=non-treated (NT) condition) or 300 μL of Salinomycin 10× solution were dispensed in the appropriate wells (4 wells/condition). After cells treatment, 6-well plates were returned to incubator for 6 hours or 24 hours.
After 6 hours or 24 hours of cells treatment, the medium was removed from each well. The cells were carefully rinsed with PBS (phosphate-buffered saline, Cat #L0615-500, Dutscher) and detached with 500 μL per well of a trypsin solution. After 5 min of trypsin (Cat #L0930-100, Dutscher) incubation at 37° C., 800 μL of medium was added per well and transferred to a 1.5 mL tube. Then, 800 μL of PBS was used to rinse each well and the corresponding solution was pooled in each corresponding 1.5 mL tube. […] Total protein concentration was assessed using the Bradford reagent (Cat #B6916-500ML, Sigma-Aldrich) and cellular lysates were stored at −80° C. until catalytic activity measurement. […]

[2] = molecular target: T1, cathepsin D (CTSD) (Homo sapiens, UniProt P07339); assay: Cathepsin D (CTSD) peptidase activity in lysates of treated HepG2 cells (MOCAc quenched fluorogenic substrate); type: cell-based
T1 construct: cell lysates (1 μg of total proteins) were pre-incubated with citrate buffer pH 4.0; endogenous in cells; host or cells: HepG2
T1 sequence (P07339 65-412): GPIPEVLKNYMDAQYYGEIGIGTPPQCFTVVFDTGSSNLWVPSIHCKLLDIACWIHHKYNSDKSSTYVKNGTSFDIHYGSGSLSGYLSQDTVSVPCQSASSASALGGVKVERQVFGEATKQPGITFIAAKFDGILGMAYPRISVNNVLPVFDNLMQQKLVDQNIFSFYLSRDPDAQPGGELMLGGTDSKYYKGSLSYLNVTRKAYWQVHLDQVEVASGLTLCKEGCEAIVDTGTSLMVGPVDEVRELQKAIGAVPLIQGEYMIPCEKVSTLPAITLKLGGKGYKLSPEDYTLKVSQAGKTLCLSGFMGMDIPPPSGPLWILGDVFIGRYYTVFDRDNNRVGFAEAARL
Description: as §1, §2, §3, §4
Salinomycin [CAS 53003-10-4] was used as positive control and was dissolved with methanol to make a 10 mM stock solution and a 10× solution at 75 μM was prepared with the culture medium. […]
After 6 hours or 24 hours of cells treatment, the medium was removed from each well. […] Total protein concentration was assessed using the Bradford reagent (Cat #B6916-500ML, Sigma-Aldrich) and cellular lysates were stored at −80° C. until catalytic activity measurement. […]

CC(C)(C)NC1CCN(c2cc(NCc3ccc(Cl)cc3)nc3ccccc23)CC1 [2-3, 2-(4-chlorobenzylamino)-4-(4-tert-butylaminopiperidin-1-yl)-quinoline Hydrochloride Salt]
CTSB/L activity versus NT ([1]; HepG2, 2 μM): 78.0% | CTSB/L activity versus NT ([1]; HepG2, 4 μM): 55.3% | inhibition of cathepsins B and L (CTSB/L) compare to the control ([1]; HepG2, 2 μM, 4 μM for 6 hours and 1 μM, 2 μM for 24 hours, p<0.05): statistically significant | CTSD activity versus NT ([2]; HepG2, 4 μM, 6 hours of treatment): 60.6% | inhibition of cathepsin D (CTSD) compare to the control ([2]; HepG2, 4 μM for 6 hours and 2 μM for 24 hours, p<0.05): statistically significant
